Measured values taken from article PMC4265473 (Molecular nutrition & food research, 2014).
“And” between values parts separate entries of the source, which are not always exact repeats. Equal values may be shown once. Read-outs that look alike come from different tables or passages of the source. Marks after values point to notes of the source that are not given here.

Tests used:
[1] = female, human, in vivo
clinical = conditions: female, human, in vivo
[2] = for unconjugated form in serum: before enzymatic deconjugation, early time points of medium and high dose subjects; for Cmax / half-life / Tmax / Vd/F: female, human, serum, po; for CL/F: oral
[3] = mean ± S.D., N = 5; for Urinary excretion (total) during the first 24 h: after enzymatic deconjugation
Ishikawa cell line = conditions: read-out: EC50, estrogenicity; Ishikawa cells; cited from earlier work
[4] = cited from earlier work
[5] = in the stomach; cited from earlier work
[6] = rats, cited from earlier work
[7] = rats, 100 mg/kg XN daily by oral gavage for 5 days; cited from earlier work
[8] = cited from earlier work; remark: listed apart in the source
[9] = 2 capsules/day, medium dose (2 capsules), mean ± S.D., N = 5
[10] = 2 capsules/day, T1/2, medium dose (2 capsules), mean ± S.D., N = 5
[11] = 4 capsules/day, high dose (4 capsules), mean ± S.D., N = 5
[12] = 4 capsules/day, T1/2, high dose (4 capsules), mean ± S.D., N = 5
[13] = half-life, across all dosages of the hop extract
[14] = high dose (4 capsules), mean ± S.D., N = 5
[15] = low dose (1 capsule), mean ± S.D., N = 5
[16] = medium dose (2 capsules), mean ± S.D., N = 5

unconjugated form in serum [2] | Cmax [2, 9] [ng/mL] | half-life [2, 10] [min] | Tmax [2, 9] [h] | Vd/F [2, 9] [L] | Cmax [2, 11] [ng/mL] | half-life [2, 12] [min] | Tmax [2, 11] [h] | Vd/F [2, 11] [L] | half-life [2, 13] [min] | CL/F [2, 14] | CL/F [2, 15] | CL/F [2, 16] | Urinary excretion (total) during the first 24 h ([3]; high dose) [nmol] | Urinary excretion (% of dose) during the first 24 h ([3]; high dose) [%] | Urinary excretion (total) during the first 24 h ([3]; low dose) | Urinary excretion (% of dose) during the first 24 h ([3]; low dose) [%] | Urinary excretion (total) during the first 24 h ([3]; medium dose) [nmol] | Urinary excretion (% of dose) during the first 24 h ([3]; medium dose) [%] | SMILES | further results
– | – | – | – | – | – | – | – | – | – | – | – | – | – | – | – | – | – | – | CC(C)=CCc1c(O)cc2c(c1O)C(=O)C[C@@H](c1ccc(O)cc1)O2 [6-PN, 6-prenylnaringenin] | AUC0-24 ratios after normalization by dose [1]: 1: 1.2: 0.5; Vd/F (clinical; apparent volume of distribution): 887 to 1770 L; AUC(0-inf) (clinical; po, AUC0-inf): 69.2 ± 60 ng·h/mL; half-life (clinical; po, T1/2): 1410 ± 414 min; Vd/F (clinical; po): 887 ± 581 L; half-life (clinical; po, half-life): 1260 to 1440 min
no free 8-PN was detected | 3.9 ± 2.6 | > 1440 | 7 ± 9.7 | 186 ± 186 | 6.7 ± 3.8 | > 1440 | 2.8 ± 4 | 271 ± 216 | > 1440 | 13.7 ± 5.5 L/h | 11.1 ± 3.4 L/h | 10.4 ± 8.1 L/h | 29.4 ± 22.9 | 1.001±0.781 | 5.1 ± 4.4 nmol | 0.693±0.597 | 21.3 ± 21.6 | 1.449±1.467 | CC(C)=CCc1c(O)cc(O)c2c1O[C@H](c1ccc(O)cc1)CC2=O [8-PN, 8-prenylnaringenin] | AUC0-24 of a theoretical dose of 50 mg 8-PN in the hop extract ([2]; extrapolated assuming AUC linear with dose): 2520 h^.ng/mL; ratio of total serum concentrations 8-PN/IX ([2]; mean of the other 4 subjects, high dose): 0.14; ratio of total serum concentrations 8-PN/IX ([2]; mean value, medium dose): 0.17; ratio of total serum concentrations 8-PN/IX ([2]; one subject with higher exposure, high dose, after enzymatic deconjugation): 0.35; ratio of total serum concentrations 8-PN/IX ([2]; one subject with higher exposure, medium dose): 0.65; EC50 (Ishikawa cell line): 13 nM; time of secondary peak due to enterohepatic recirculation ([4]; post dose, women): 5 to 8 h; AUC0-24 ([4]; single oral dose of 50 mg 8-PN, women): 453 h^.ng/mL; share of dose recovered in feces within 48 h ([4]; single oral doses to women): 21-24%
detected | 19.1 ± 15.5 | 1490 ± 1460 | 3.2 ± 3.2 | 99 ± 56 | 37.6 ± 17.6 | 1190 ± 522 | 4 ± 4.8 | 182 ± 53 | – | 7.3 ± 3.5 L/h | 7.1 ± 4.2 L/h | 5.7 ± 4.9 L/h | 172 ± 67.4 | 1.902±0.746 | 29.8 ± 32.3 nmol | 1.318±1.428 | 89.5 ± 54.5 | 1.98±1.205 | COc1cc(O)c(CC=C(C)C)c2c1C(=O)CC(c1ccc(O)cc1)O2 (centres unmarked) [IX, isoxanthohumol] | –
detected | 22.2 ± 12.1 | 570 ± 132 | 3.6 ± 2.6 | 3770 ± 1390 | 27.6 ± 8.9 | 1240 ± 762 | 1.8 ± 1.8 | 7880 ± 1810 | ~1140 | 329 L/h and 329 ± 163 L/h | 657 L/h and 657 ± 670 L/h | 278 L/h and 278 ± 87 L/h | 138 ± 113 | 0.058±0.047 | 23.9 ± 17.9^a nmol | 0.040±0.030 | 37.0 ± 26.3 | 0.031±0.022 | COc1cc(O)c(CC=C(C)C)c(O)c1C(=O)/C=C/c1ccc(O)cc1 [XN, xanthohumol] | half-life of conversion to IX by acid-catalyzed cyclization [5]: 37 min; share recovered in the feces in the first 48 h ([6]; oral administration): 89%; elimination half-life ([6]; oral pure XN): 32 h; tissue distribution [7]: highest concentrations in the small intestine, colon and the liver; elimination half-life ([8]; humans, oral pure XN): 18 to 20 h; time of secondary peak due to enterohepatic recirculation ([8]; men and women): 4 h
